In brackets after ≈: the same amount, converted by molar mass.

Assay [1] deals with Staphylococcus aureus. The experiment in a line: Antibacterial activity against Staphylococcus aureus assessed as inhibition of bacterial growth. It is filed as functional.
Assay [2] concerns Escherichia coli. The experiment in a line: Antibacterial activity against Escherichia coli clinical isolate ECJH19 assessed as diameter of zone of inhibition by disk diffusion assay. It is filed as functional.
Assay [3] relates to Escherichia coli. Put plainly: Antibacterial activity against Escherichia coli clinical isolate ECJH15 assessed as diameter of zone of inhibition by disk diffusion assay. It is filed as functional.
Assay [4] concerns Escherichia coli. Put plainly: Antibacterial activity against Escherichia coli clinical isolate ECJH16 assessed as diameter of zone of inhibition by disk diffusion assay. It is filed as functional. On the technique in general: A growth-free zone around the sample is the usual read-out of agar diffusion tests.
Assay [5] deals with Escherichia coli. Put plainly: Antibacterial activity against Escherichia coli clinical isolate ECJH9 assessed as diameter of zone of inhibition by disk diffusion assay. It is filed as functional.
Assay [6] has as its system Escherichia coli. Put plainly: Antibacterial activity against Escherichia coli clinical isolate ECJH25 assessed as diameter of zone of inhibition by disk diffusion assay. The class given is functional.
Assay [7] deals with Escherichia coli. Put plainly: Antibacterial activity against Escherichia coli clinical isolate ECJH8 assessed as diameter of zone of inhibition by disk diffusion assay. It is filed as functional.
Assay [8] relates to Escherichia coli. Put plainly: Antibacterial activity against Escherichia coli clinical isolate ECJH6 assessed as diameter of zone of inhibition by disk diffusion assay. It is filed as functional.
The test system of assay [9] is Escherichia coli. The experiment in a line: Antibacterial activity against Escherichia coli clinical isolate ECJH5 assessed as diameter of zone of inhibition by disk diffusion assay. The class given is functional.
For assay [10], the system named is Escherichia coli. Put plainly: Antibacterial activity against Escherichia coli clinical isolate ECJH18 assessed as diameter of zone of inhibition by disk diffusion assay. It is filed as functional.
The test system of assay [11] is Escherichia coli. Put plainly: Antibacterial activity against Escherichia coli clinical isolate ECJH7 assessed as diameter of zone of inhibition by disk diffusion assay. The class given is functional.
In assay [12] the test system is Escherichia coli. Put plainly: Antibacterial activity against Escherichia coli clinical isolate ECJH24 assessed as diameter of zone of inhibition by disk diffusion assay. It is filed as functional.
For assay [13], the system named is Escherichia coli. Put plainly: Antibacterial activity against Escherichia coli clinical isolate ECJH23 assessed as diameter of zone of inhibition by disk diffusion assay. It is filed as functional.
In assay [14] the test system is Escherichia coli. The experiment in a line: Antibacterial activity against Escherichia coli clinical isolate ECJH17 assessed as diameter of zone of inhibition by disk diffusion assay. The class given is functional.
The test system of assay [15] is Escherichia coli. The experiment in a line: Antibacterial activity against Escherichia coli clinical isolate ECJH10 assessed as diameter of zone of inhibition by disk diffusion assay. The class given is functional.
In assay [16] the test system is Escherichia coli. The experiment in a line: Antibacterial activity against Escherichia coli clinical isolate ECJH21 assessed as diameter of zone of inhibition by disk diffusion assay. The class given is functional.
For assay [17], the system named is Escherichia coli. The experiment in a line: Antibacterial activity against Escherichia coli clinical isolate ECJH3 assessed as diameter of zone of inhibition by disk diffusion assay. It is filed as functional.
For assay [18], the system named is Escherichia coli. Put plainly: Antibacterial activity against Escherichia coli clinical isolate ECJH11 assessed as diameter of zone of inhibition by disk diffusion assay. It is filed as functional.
In assay [19] the test system is Escherichia coli. Put plainly: Antibacterial activity against Escherichia coli clinical isolate ECJH2 assessed as diameter of zone of inhibition by disk diffusion assay. It is filed as functional.
The subject of assay [20] is Acinetobacter baumannii. The experiment in a line: Antibacterial activity against Acinetobacter baumannii assessed as inhibition of bacterial growth. The class given is functional.
Assay [21] deals with Salmonella typhi. The experiment in a line: Antibacterial activity against Salmonella typhi assessed as diameter of zone of inhibition at 500 ug/ml by agar disk diffusion method. The class given is functional, Salmonella enterica subsp. enterica serovar Typhi. As to conditions: Salmonella enterica, read-out: DIZ.
Assay [22] deals with Salmonella typhi. Put plainly: Antibacterial activity against Salmonella typhi assessed as inhibition of bacterial growth incubated overnight by serial dilution based spectrophotometer. As to conditions: Salmonella enterica. It is filed as functional, Salmonella enterica subsp. enterica serovar Typhi.
The test system of assay [23] is Enterococcus faecalis. The experiment in a line: Antibacterial activity against Enterococcus faecalis MTCC 439 assessed as diameter of zone of inhibition at 500 ug/ml by agar disk diffusion method. The class given is functional. As to conditions: read-out: DIZ.
The test system of assay [24] is Staphylococcus aureus. The experiment in a line: Antibacterial activity against Staphylococcus aureus MTCC 902 assessed as inhibition of bacterial growth incubated overnight by serial dilution based spectrophotometer. It is filed as functional.
For assay [25], the system named is Bacillus subtilis. The experiment in a line: Antibacterial activity against Bacillus subtilis MTCC 736 assessed as inhibition of bacterial growth incubated overnight by serial dilution based spectrophotometer. The class given is functional.
Assay [26] concerns Staphylococcus aureus. Put plainly: Ratio of MBC for antibacterial activity against Staphylococcus aureus MTCC 902 to MIC for bactericidal activity against Staphylococcus aureus MTCC 902. The class given is functional.
Assay [27] concerns Staphylococcus aureus. The experiment in a line: Antibacterial activity against Staphylococcus aureus MTCC 902 assessed as diameter of zone of inhibition at 500 ug/ml by agar disk diffusion method. The class given is functional. The note with it: read-out: DIZ.
In assay [28] the test system is Pseudomonas aeruginosa. Put plainly: Antibacterial activity against Pseudomonas aeruginosa MTCC 2453 assessed as inhibition of bacterial growth incubated overnight by serial dilution based spectrophotometer. The class given is functional.
Assay [29] has as its system Pseudomonas aeruginosa. The experiment in a line: Bactericidal activity against Pseudomonas aeruginosa MTCC 2453 assessed as inhibition of bacterial growth incubated overnight. It is filed as functional.
Assay [30] concerns Staphylococcus aureus. The experiment in a line: Bactericidal activity against Staphylococcus aureus MTCC 902 assessed as inhibition of bacterial growth incubated overnight. The class given is functional.
The test system of assay [31] is Escherichia coli. The experiment in a line: Ratio of MBC for antibacterial activity against Escherichia coli MTCC 443 to MIC for bactericidal activity against Escherichia coli MTCC 443. The class given is functional.
Assay [32] has as its system Bacillus subtilis. Put plainly: Ratio of MBC for antibacterial activity against Bacillus subtilis MTCC 736 to MIC for bactericidal activity against Bacillus subtilis MTCC 736. The class given is functional.
Assay [33] relates to Enterococcus faecalis. The experiment in a line: Bactericidal activity against Enterococcus faecalis MTCC 439 assessed as inhibition of bacterial growth incubated overnight. It is filed as functional.
The test system of assay [34] is Bacillus subtilis. The experiment in a line: Bactericidal activity against Bacillus subtilis MTCC 736 assessed as inhibition of bacterial growth incubated overnight. The class given is functional.
The subject of assay [35] is Escherichia coli. Put plainly: Antibacterial activity against Escherichia coli MTCC 443 assessed as diameter of zone of inhibition at 500 ug/ml by agar disk diffusion method. The class given is functional. The note with it: read-out: DIZ.
Assay [36] deals with Pseudomonas aeruginosa. Put plainly: Antibacterial activity against Pseudomonas aeruginosa MTCC 2453 assessed as diameter of zone of inhibition at 500 ug/ml by agar disk diffusion method. It is filed as functional. As to conditions: read-out: DIZ.
Assay [37] deals with Enterococcus faecalis. The experiment in a line: Antibacterial activity against Enterococcus faecalis MTCC 439 assessed as inhibition of bacterial growth incubated overnight by serial dilution based spectrophotometer. It is filed as functional.
For assay [38], the system named is Bacillus subtilis. Put plainly: Antibacterial activity against Bacillus subtilis MTCC 736 assessed as diameter of zone of inhibition at 500 ug/ml by agar disk diffusion method. The class given is functional. As to conditions: read-out: DIZ.
Assay [39] relates to Escherichia coli. Put plainly: Bactericidal activity against Escherichia coli MTCC 443 assessed as inhibition of bacterial growth incubated overnight. The class given is functional.
For assay [40], the system named is Escherichia coli. The experiment in a line: Antibacterial activity against Escherichia coli MTCC 443 assessed as inhibition of bacterial growth incubated overnight by serial dilution based spectrophotometer. It is filed as functional.
Assay [41] has as its system Salmonella typhi. Put plainly: Bactericidal activity against Salmonella typhi assessed as inhibition of bacterial growth incubated overnight. As to conditions: Salmonella enterica. It is filed as functional, Salmonella enterica subsp. enterica serovar Typhi.

What is called MIC is the lowest concentration found to suppress growth. Take `CC(NC1=NC(c2cc3cc(OCc4cccc(Cl)c4)ccc3nc2O)N=CN1)c1ccccc1` (stereo not drawn): the MIC in [1] came out at 2 µg/mL (≈ 4.12 µM).
As for `CC1(C)S[C@@H]2[C@H](NC(=O)[C@H](N)c3ccccc3)C(=O)N2[C@H]1C(=O)O` [AMPICILLIN], the “diameter of the inhibition zone (DIZ)” value in [2] is listed as 17 mm; in assay [3], 20 mm; in assay [4], 17 mm; in [5], 16 mm; in [6] it was 22 mm; in assay [7], 21 mm. For the same molecule, the “diameter of the inhibition zone (DIZ)” value in assay [8] was determined as 14 mm; in [9], 18 mm; in [10], 17 mm; in assay [11] it was 24 mm; in [12], 22 mm; in assay [13], 20 mm. Further, the “diameter of the inhibition zone (DIZ)” value in [14] was 16 mm; in assay [15] it was 18 mm; in assay [16], 18 mm; in assay [17], 19 mm; in [18], 21 mm; in [19], 22 mm.
For `Cc1ccc(N/N=C/c2ccc(CN3CCN(c4ccnc5cc(Cl)ccc45)CC3)cc2)cc1`, in [20], the minimum inhibitory concentration (MIC) is 2 µg/mL (≈ 4.26 µM).
With `CCCCCCCCCCCCOC(=O)c1cc(OCCCCCCCCCCCC)nc2ccccc12`, the MIC in assay [1] amounted to 6.25 µg/mL (≈ 11.9 µM).
On to `N/N=C/c1cc(N2CCOCC2)c2cccc(C(F)(F)F)c2n1`, for which the minimal inhibitory concentration (MIC) in assay [20] was determined as 2 µg/mL (≈ 6.17 µM).
As a reminder, the MBC is the smallest concentration meeting the test's criterion for killing. As for `Clc1ccc2c(NCC/N=C/c3ccco3)ccnc2c1`, the zone of inhibition at 500 µg/mL turned out to be 9 mm in [21]; 9 mm in assay [23]; 10 mm in [27]; 9 mm in [35]; 9 mm in assay [36]; 10 mm in [38]. The MIC in assay [22] came out at 512 µg/mL (≈ 1710 µM); in [24] it was 256 µg/mL (≈ 854 µM); in assay [25] it was 256 µg/mL (≈ 854 µM); in assay [28], 512 µg/mL (≈ 1710 µM); in assay [37] it was 512 µg/mL (≈ 1710 µM); in [40], 512 µg/mL (≈ 1710 µM). Moreover, the Ratio in assay [26], in assay [31] and in assay [32] was 1 throughout. Besides, the MBC was more than 512 µg/mL in [29]; 256 µg/mL (≈ 854 µM) in assay [30]; more than 512 µg/mL in assay [33]; 256 µg/mL (≈ 854 µM) in assay [34]; 512 µg/mL (≈ 1710 µM) in assay [39]; more than 512 µg/mL in assay [41].
